Experimental data published in ChEMBL document CHEMBL1121578, “Synthesis of certain [6:5:6] linear tricyclic nucleosides as potential antitumor agents” (1980).
pIC50: −log10 of the molar value.

Legend:
[1] = test system: Mus musculus; test: In vivo increase in life span of drug treated (L1210-bearing) mice administered at a dose of 200 mg/kg/injection; assay type: functional
[2] = test system: L1210; test: Concentration required to reduce the growth rate of L-1210 cells to half of the control rate; assay type: functional; conditions: Mus musculus, read-out: ID50 (the source's name)
[3] = test system: Mus musculus; test: In vivo increase in life span of drug treated (P388-bearing) mice administered at a dose of 200 mg/kg/injection; assay type: functional
[4] = test system: Mus musculus; test: In vivo increase in life span of drug treated (P388-bearing) mice administered at a dose of 50 mg/kg/injection; assay type: functional
[5] = test system: Mus musculus; test: In vivo increase in life span of drug treated (L1210-bearing) mice administered at a dose of 100 mg/kg/injection; assay type: functional
[6] = test system: L1210; test: Concentration required to reduce the growth rate of L-1210 cells to half of the control rate; No effect on cell growth of 1E-4 M of the compound; assay type: functional, cell-based; conditions: Mus musculus
[7] = test system: Mus musculus; test: In vivo increase in life span of drug treated (L1210-bearing) mice administered at a dose of 400 mg/kg/injection; assay type: functional
[8] = test system: Mus musculus; test: In vivo increase in life span of drug treated (L1210-bearing) mice administered at a dose of 25 mg/kg/injection; assay type: functional
[9] = test system: Mus musculus; test: In vivo increase in life span of drug treated (L1210-bearing) mice administered at a dose of 320 mg/kg/injection; assay type: functional
[10] = test system: Mus musculus; test: In vivo increase in life span of drug treated (L1210-bearing) mice administered at a dose of 120 mg/kg/injection; assay type: functional
[11] = test system: Mus musculus; test: In vivo increase in life span of drug treated (L1210-bearing) mice administered at a dose of 600 mg/kg/injection; assay type: functional
[12] = test system: Mus musculus; test: In vivo increase in life span of drug treated (L1210-bearing) mice administered at a dose of 8 mg/kg/injection; assay type: functional

SMILES | ILS at 200 mg/kg [1] | pIC50 [2] | further results
Nc1nc2c(c(=O)[nH]1)c1c(N)ncnc1n2[C@@H]1O[C@H](CO)[C@@H](O)[C@H]1O | 13% | 5.60 | 
CSc1ncnc2c1c1c(N)ncnc1n2C1O[C@H](CO)[C@@H](O)[C@H]1O (stereo partly specified) | 9% | 5.07 | ILS at 200 mg/kg [3]: 5%
Nc1ncnc2c1c1c(O)ncnc1n2C1O[C@H](CO)[C@@H](O)[C@H]1O (stereo partly specified) |  | 4.20 | ILS at 50 mg/kg [4]: 33%; ILS at 100 mg/kg [5]: 20%
C=CCSc1ncnc2c1c1c(N)ncnc1n2C1O[C@H](CO)[C@@H](O)[C@H]1O (stereo partly specified) | 9% | 3.96 | 
CSc1nc(O)c2c3c(N)ncnc3n(C3O[C@H](CO)[C@@H](O)[C@H]3O)c2n1 (stereo partly specified) | 0% | 4.10 | 
Nc1ncnc2c1c1c(N)ncnc1n2[C@@H]1O[C@H](CO)[C@@H](O)[C@H]1O |  |  | ID50 [6]: No effect; ILS at 100 mg/kg [5]: -9%
Nc1ncnc2c1c1c(O)nc(O)nc1n2C1O[C@H](CO)[C@@H](O)[C@H]1O (stereo partly specified) |  | ~4.00 | ILS at 400 mg/kg [7]: 108%
CSc1nc(O)nc2c1c1c(N)ncnc1n2C1O[C@H](CO)[C@@H](O)[C@H]1O (stereo partly specified) | 4% |  | ID50 [6]: No effect
NC(=S)c1c(N)n(C2O[C@H](CO)[C@@H](O)[C@H]2O)c2ncnc(N)c12 (stereo partly specified) |  | 6.66 | ILS at 25 mg/kg [8]: 37%
CSc1nc(SC)c2c3c(N)ncnc3n(C3O[C@H](CO)[C@@H](O)[C@H]3O)c2n1 (stereo partly specified) | 45% | 4.11 | 
Nc1ncnc2c1c1cnc(O)nc1n2C1O[C@H](CO)[C@@H](O)[C@H]1O (stereo partly specified) |  | 4.12 | ILS at 320 mg/kg [9]: 10%
NC(=O)c1c(N)n(C2O[C@H](CO)[C@@H](O)[C@H]2O)c2ncnc(N)c12 (stereo partly specified) |  | 4.80 | ILS at 120 mg/kg [10]: 30%
CSc1nc(N)c2c3c(N)ncnc3n(C3O[C@H](CO)[C@@H](O)[C@H]3O)c2n1 (stereo partly specified) |  |  | ID50 [6]: No effect; ILS at 400 mg/kg [7]: 1%
N#Cc1c(Br)n(C2O[C@H](CO)[C@@H](O)[C@H]2O)c2ncnc(N)c12 (stereo partly specified) |  | 6.68 | ILS at 600 mg/kg [11]: 22%
Nc1ncnc2c1c1c(N)nc(O)nc1n2C1O[C@H](CO)[C@@H](O)[C@H]1O (stereo partly specified) | 21% | 3.92 | 
Nc1ncnc2c1c1c(S)ncnc1n2C1O[C@H](CO)[C@@H](O)[C@H]1O (stereo partly specified) |  | 5.70 | ILS at 100 mg/kg [5]: 38%
Nc1ncnc2c1c1c(SCc3ccc([N+](=O)[O-])cc3)ncnc1n2C1O[C@H](CO)[C@@H](O)[C@H]1O (stereo partly specified) | -2% | 4.35 | 
Nc1ncnc2c1c1c(=S)[nH]c(=O)[nH]c1n2C1O[C@H](CO)[C@@H](O)[C@H]1O (stereo partly specified) |  | 4.96 | ILS at 100 mg/kg [5]: 4%
Nc1ncnc2c1c1c(O)nc(S)nc1n2C1O[C@H](CO)[C@@H](O)[C@H]1O (stereo partly specified) |  | 5.15 | ILS at 400 mg/kg [7]: 14%
Nc1ncnc2c1c1cncnc1n2C1O[C@H](CO)[C@@H](O)[C@H]1O (stereo partly specified) | 2% | < 4.00 | 
Nc1ncnc2c1c1c(S)nc(S)nc1n2C1O[C@H](CO)[C@@H](O)[C@H]1O (stereo partly specified) |  | 5.21 | ILS at 400 mg/kg [7]: 10%
N#Cc1c(N)n(C2O[C@H](CO)[C@@H](O)[C@H]2O)c2ncnc(N)c12 (stereo partly specified) |  | 6.74 | ILS at 8 mg/kg [12]: 26%
